In the supplement of paper PMC10307832:

Assays:
Experiment in all cases: relative viability (nuclei count vs DMSO), 5 days (fraction); higher = more cells survive
[1] = tested on: NCI-H2347
How it was run: (§1)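 Lung cancer cell lines in 1536-well plates got either a single drug or a fixed anchor-drug dose together with five library-drug doses (not always all listed) in √10 steps, by pin tool, on the day after seeding. Nuclei were counted after 5 days, and relative viability is the treated-to-vehicle ratio of nuclei counts. Values are medians of duplicate plates.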

[2] = tested on: NCI-H2126
How it was run: as §1

[3] = tested on: H3255
How it was run: as §1

[4] = tested on: NCI-H520
How it was run: as §1

[5] = tested on: NCI-H522
How it was run: as §1

[6] = tested on: COR-L 105
How it was run: as §1

[7] = tested on: NCI-H2087
How it was run: as §1

[8] = tested on: NCI-H322M
How it was run: as §1

[9] = tested on: 201T
How it was run: as §1

[10] = tested on: NCI-H1915
How it was run: as §1

[11] = tested on: EPLC-272H
How it was run: as §1

[12] = tested on: NCI-H2405
How it was run: as §1

[13] = tested on: ChaGo-K-1
How it was run: as §1

[14] = tested on: HCC-827
How it was run: as §1

[15] = tested on: PC-14
How it was run: as §1

[16] = tested on: NCI-H23
How it was run: as §1

[17] = tested on: NCI-H650
How it was run: as §1

[18] = tested on: NCI-H661
How it was run: as §1

[19] = tested on: LCLC-97TM1
How it was run: as §1

[20] = tested on: LC-2-ad
How it was run: as §1

[21] = tested on: RERF-LC-KJ
How it was run: as §1

[22] = tested on: NCI-H1666
How it was run: as §1

[23] = tested on: NCI-H647
How it was run: as §1

With Clc1ccc(Nc2nnc(Cc3ccncc3)c3ccccc23)cc1 [Vatalanib] + CCNC(=O)c1noc(-c2cc(C(C)C)c(O)cc2O)c1-c1ccc(CN2CCOCC2)cc1 [Luminespib] (partner 0.01 µM) as the compound, how does the relative viability ([1]; first compound 0.04 µM) read?
The relative viability was 0.416.

And the relative viability ([1]; first compound 0.1265 µM)?
The relative viability was 0.425.

And the relative viability ([1]; first compound 0.4 µM)?
Its relative viability is 0.254.

And the relative viability ([1]; first compound 1.265 µM)?
The relative viability was 0.549.

And the relative viability ([1]; first compound 4 µM)?
Its relative viability is 0.509.

And the relative viability ([2]; first compound 0.04 µM)?
Its relative viability is 0.925.

And the relative viability ([2]; first compound 0.1265 µM)?
Its relative viability is 0.864.

And the relative viability ([2]; first compound 0.4 µM)?
The relative viability was 0.919.

What about the relative viability ([2]; first compound 1.265 µM) of the same compound?
The relative viability was 0.94.

And the relative viability ([2]; first compound 4 µM)?
Its relative viability is 0.908.

What about the relative viability ([3]; first compound 0.04 µM) of the same compound?
Its relative viability is 0.881.

And the relative viability ([3]; first compound 0.1265 µM)?
Its relative viability is 0.91.

And the relative viability ([3]; first compound 0.4 µM)?
Its relative viability is 0.82.

And the relative viability ([3]; first compound 1.265 µM)?
Its relative viability is 0.743.

And the relative viability ([3]; first compound 4 µM)?
Its relative viability is 0.838.

What about the relative viability ([4]; first compound 0.04 µM) of the same compound?
The relative viability was 0.199.

And the relative viability ([4]; first compound 0.1265 µM)?
Its relative viability is 0.19.

And the relative viability ([4]; first compound 0.4 µM)?
Its relative viability is 0.22.

And the relative viability ([4]; first compound 1.265 µM)?
The relative viability was 0.221.

What about the relative viability ([4]; first compound 4 µM) of the same compound?
The relative viability was 0.246.

And the relative viability ([5]; first compound 0.04 µM)?
Its relative viability is 1.02.

What about the relative viability ([5]; first compound 0.1265 µM) of the same compound?
The relative viability was 1.23.

What about the relative viability ([5]; first compound 0.4 µM) of the same compound?
Its relative viability is 1.2.

What about the relative viability ([5]; first compound 1.265 µM) of the same compound?
The relative viability was 1.15.

And the relative viability ([5]; first compound 4 µM)?
The relative viability was 1.1.

And the relative viability ([6]; first compound 0.04 µM)?
Its relative viability is 0.814.

And the relative viability ([6]; first compound 0.1265 µM)?
Its relative viability is 0.7.

And the relative viability ([6]; first compound 0.4 µM)?
The relative viability was 0.877.

And the relative viability ([6]; first compound 1.265 µM)?
Its relative viability is 0.843.

What about the relative viability ([6]; first compound 4 µM) of the same compound?
The relative viability was 0.74.

And the relative viability ([7]; first compound 0.04 µM)?
The relative viability was 0.152.

What about the relative viability ([7]; first compound 0.1265 µM) of the same compound?
Its relative viability is 0.157.

And the relative viability ([7]; first compound 0.4 µM)?
Its relative viability is 0.184.

What about the relative viability ([7]; first compound 1.265 µM) of the same compound?
Its relative viability is 0.173.

And the relative viability ([7]; first compound 4 µM)?
Its relative viability is 0.159.

And the relative viability ([8]; first compound 0.04 µM)?
The relative viability was 0.849.

And the relative viability ([8]; first compound 0.1265 µM)?
The relative viability was 0.798.

What about the relative viability ([8]; first compound 0.4 µM) of the same compound?
The relative viability was 0.877.

What about the relative viability ([8]; first compound 1.265 µM) of the same compound?
Its relative viability is 0.793.

And the relative viability ([8]; first compound 4 µM)?
The relative viability was 0.909.

And the relative viability ([9]; first compound 0.04 µM)?
The relative viability was 1.07.

What about the relative viability ([9]; first compound 0.1265 µM) of the same compound?
The relative viability was 1.05.

And the relative viability ([9]; first compound 0.4 µM)?
The relative viability was 1.13.

What about the relative viability ([9]; first compound 1.265 µM) of the same compound?
Its relative viability is 1.04.

What about the relative viability ([9]; first compound 4 µM) of the same compound?
The relative viability was 1.13.

And the relative viability ([10]; first compound 0.04 µM)?
The relative viability was 0.847.

What about the relative viability ([10]; first compound 0.1265 µM) of the same compound?
The relative viability was 0.7.

And the relative viability ([10]; first compound 0.4 µM)?
Its relative viability is 0.828.

And the relative viability ([10]; first compound 1.265 µM)?
Its relative viability is 0.846.

What about the relative viability ([10]; first compound 4 µM) of the same compound?
Its relative viability is 0.758.

What about the relative viability ([11]; first compound 0.04 µM) of the same compound?
The relative viability was 0.593.

And the relative viability ([11]; first compound 0.1265 µM)?
The relative viability was 0.654.

What about the relative viability ([11]; first compound 0.4 µM) of the same compound?
Its relative viability is 0.26.

And the relative viability ([11]; first compound 1.265 µM)?
The relative viability was 0.2.

What about the relative viability ([11]; first compound 4 µM) of the same compound?
The relative viability was 0.296.

And the relative viability ([12]; first compound 0.04 µM)?
The relative viability was 0.753.

And the relative viability ([12]; first compound 0.1265 µM)?
Its relative viability is 0.775.

And the relative viability ([12]; first compound 1.265 µM)?
Its relative viability is 0.594.

What about the relative viability ([12]; first compound 4 µM) of the same compound?
The relative viability was 0.717.

What about the relative viability ([13]; first compound 0.04 µM) of the same compound?
Its relative viability is 0.636.

What about the relative viability ([13]; first compound 0.1265 µM) of the same compound?
Its relative viability is 0.608.

What about the relative viability ([13]; first compound 0.4 µM) of the same compound?
The relative viability was 0.671.

What about the relative viability ([13]; first compound 1.265 µM) of the same compound?
The relative viability was 0.471.

What about the relative viability ([13]; first compound 4 µM) of the same compound?
Its relative viability is 0.45.

What about the relative viability ([14]; first compound 0.04 µM) of the same compound?
Its relative viability is 0.53.

And the relative viability ([14]; first compound 0.1265 µM)?
Its relative viability is 0.614.

And the relative viability ([14]; first compound 0.4 µM)?
Its relative viability is 0.494.

What about the relative viability ([14]; first compound 1.265 µM) of the same compound?
Its relative viability is 0.638.

What about the relative viability ([14]; first compound 4 µM) of the same compound?
Its relative viability is 0.611.

And the relative viability ([15]; first compound 0.04 µM)?
The relative viability was 0.155.

What about the relative viability ([15]; first compound 0.1265 µM) of the same compound?
The relative viability was 0.19.

And the relative viability ([15]; first compound 1.265 µM)?
Its relative viability is 0.158.

And the relative viability ([15]; first compound 4 µM)?
Its relative viability is 0.149.

And the relative viability ([16]; first compound 0.04 µM)?
The relative viability was 0.229.

And the relative viability ([16]; first compound 0.1265 µM)?
Its relative viability is 0.213.

What about the relative viability ([16]; first compound 0.4 µM) of the same compound?
Its relative viability is 0.227.

And the relative viability ([16]; first compound 1.265 µM)?
Its relative viability is 0.19.

And the relative viability ([16]; first compound 4 µM)?
Its relative viability is 0.205.

And the relative viability ([17]; first compound 0.04 µM)?
The relative viability was 0.821.

What about the relative viability ([17]; first compound 0.1265 µM) of the same compound?
The relative viability was 0.628.

And the relative viability ([17]; first compound 1.265 µM)?
The relative viability was 0.736.

What about the relative viability ([17]; first compound 4 µM) of the same compound?
Its relative viability is 0.781.

What about the relative viability ([18]; first compound 0.04 µM) of the same compound?
Its relative viability is 0.887.

And the relative viability ([18]; first compound 0.1265 µM)?
Its relative viability is 0.91.

What about the relative viability ([18]; first compound 0.4 µM) of the same compound?
The relative viability was 0.998.

What about the relative viability ([18]; first compound 1.265 µM) of the same compound?
Its relative viability is 0.89.

And the relative viability ([18]; first compound 4 µM)?
The relative viability was 0.931.

And the relative viability ([19]; first compound 0.04 µM)?
Its relative viability is 0.715.

What about the relative viability ([19]; first compound 0.1265 µM) of the same compound?
The relative viability was 0.808.

What about the relative viability ([19]; first compound 0.4 µM) of the same compound?
The relative viability was 0.741.

What about the relative viability ([19]; first compound 1.265 µM) of the same compound?
Its relative viability is 0.725.

What about the relative viability ([19]; first compound 4 µM) of the same compound?
The relative viability was 0.951.

What about the relative viability ([20]; first compound 0.04 µM) of the same compound?
The relative viability was 1.1.

And the relative viability ([20]; first compound 0.1265 µM)?
Its relative viability is 1.04.

And the relative viability ([20]; first compound 1.265 µM)?
Its relative viability is 0.997.

What about the relative viability ([20]; first compound 4 µM) of the same compound?
Its relative viability is 0.948.

What about the relative viability ([21]; first compound 0.04 µM) of the same compound?
Its relative viability is 1.17.

What about the relative viability ([21]; first compound 0.1265 µM) of the same compound?
Its relative viability is 1.22.

And the relative viability ([21]; first compound 0.4 µM)?
The relative viability was 1.2.

And the relative viability ([21]; first compound 1.265 µM)?
Its relative viability is 1.05.

What about the relative viability ([21]; first compound 4 µM) of the same compound?
The relative viability was 1.07.

What about the relative viability ([22]; first compound 0.04 µM) of the same compound?
Its relative viability is 0.986.

What about the relative viability ([22]; first compound 0.1265 µM) of the same compound?
Its relative viability is 0.991.

What about the relative viability ([22]; first compound 0.4 µM) of the same compound?
The relative viability was 0.996.

What about the relative viability ([22]; first compound 1.265 µM) of the same compound?
The relative viability was 1.01.

What about the relative viability ([22]; first compound 4 µM) of the same compound?
The relative viability was 1.04.

What about the relative viability ([23]; first compound 0.04 µM) of the same compound?
The relative viability was 0.128.

What about the relative viability ([23]; first compound 0.1265 µM) of the same compound?
The relative viability was 0.0977.

And the relative viability ([23]; first compound 0.4 µM)?
Its relative viability is 0.169.

And the relative viability ([23]; first compound 1.265 µM)?
The relative viability was 0.187.

What about the relative viability ([23]; first compound 4 µM) of the same compound?
The relative viability was 0.138.
